Data as given in PubChem BioAssay (NCI).
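Protocol summary: plate cells (96-well), add compound at 5 concentrations, incubate 48 h, interpolate endpoints linearly. The concentration for 50% growth inhibition is given as GI50. TGI denotes the concentration required for complete inhibition of growth.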

How the values were obtained:
Test in all cases: NCI tumour cell line growth inhibition, 48 h
[1] = system: 786-0 renal
[2] = system: COLO 205 colon
[3] = system: HCC-2998 colon
[4] = system: HCT-116 colon
[5] = system: MDA-MB-435
[6] = system: NCI-H23 lung
[7] = system: NCI-H522 lung
[8] = system: PC-3 prostate
[9] = system: SF-268 CNS
[10] = system: SK-MEL-2 melanoma

| Structure (SMILES) | GI50 [1] [µM] | TGI [1] [µM] | GI50 [2] [µM] | TGI [2] [µM] | GI50 [3] [µM] | TGI [3] [µM] | GI50 [4] [µM] | TGI [4] [µM] | GI50 [5] [µM] | TGI [5] [µM] | GI50 [6] [µM] | TGI [6] [µM] | GI50 [7] [µM] | TGI [7] [µM] | GI50 [8] [µM] | TGI [8] [µM] | GI50 [9] [µM] | TGI [9] [µM] | GI50 [10] [µM] | TGI [10] [µM] |
| --- | --- | --- | --- | --- | --- | --- | --- | --- | --- | --- | --- | --- | --- | --- | --- | --- | --- | --- | --- | --- |
| Cc1cc(N2CCOCC2)nc(N(CCCNc2ccnc3cc(Cl)ccc23)Cc2ccco2)n1 | 1.58 | 3.17 | 1.71 | 3.72 | 2.97 | 8.18 | 2.2 | 10.5 | 0.858 | 6.41 | 2.76 | 12.7 | 2.69 | 10.9 | 3.03 | 12.9 | 3.43 | 16.1 | 2.52 | 6.79 |
| CC([C@H]1CCC2C3CCC4C[C@@H](N)CC[C@]4(C)C3CC[C@@]21C)N(C)C (stereo not given in full) | 4.99 | 11.6 | 1.89 | 4.37 | 12.8 | 26.3 | 1.9 | 5.02 | 2.26 | 5.27 | 13.8 | 37.2 | 7.25 | 21.3 | 8.52 | 33 | 3.34 | 11.7 | 8.45 | 21.3 |
| C=C(CO)[C@@H]1CC[C@]2(COC3CCCCO3)CC[C@]3(C)[C@H](CC[C@@H]4[C@@]5(C)C=C(C=O)C(=O)C(C)(C)[C@@H]5CC[C@]43C)[C@@H]12 (stereo not given in full) | 0.185 | 0.406 | 0.273 | 0.833 | 0.286 | 0.838 | 0.303 | 1.08 | 0.214 | 0.494 | 0.311 | 1.02 | 0.205 | 0.487 | 0.237 | 0.973 | 0.297 | 0.979 | 0.448 | 1.82 |
| OCCNc1nc(Nc2ccc(Cl)c(Cl)c2)nc2ccccc12 | 3.04 | 11 | 1.6 | 3.07 | 2.52 | 6.85 | 3.52 | 14.6 | 7.1 | 20.2 | 10.3 | 25.1 | 10 | 24.5 | 4.47 | 16.6 | 6.78 | 20.8 | 16.4 | 33.1 |
| Cc1ccc(C(=O)/C(=C\c2ccc([N+](=O)[O-])cc2)S(=O)Cc2ccc(Cl)cc2)cc1 (stereo not given) | 1.57 | 2.97 | 1.88 | 3.81 | 1.82 | 3.36 | 1.43 | 2.92 | 1.87 | 4 | 1.83 | 3.89 | 1.72 | 3.18 | 1.56 | 3.12 | 1.75 | 3.42 | 1.96 | 4.15 |
| CC1(N)CCN(c2cnc(-c3cccc(Cl)c3Cl)c(N)n2)CC1 | 8.36 | 22 | 16.9 | 35.5 | 22 | 77.6 | 14.5 | 29 | 28.3 | > 100 | 5.99 | > 100 | 14.9 | 65.8 | 26.7 | > 100 | 22.7 | > 100 | 20.1 | 46.4 |
| COc1cc(C2=N/C(=C/c3cccs3)C(=O)O2)cc(OC)c1OC | – | > 100 | – | > 100 | – | > 100 | – | > 100 | – | > 100 | – | > 100 | – | > 100 | – | > 100 | – | > 100 | – | > 100 |
| O=C(Nc1cccc(Cl)c1)c1cccc(NC2=C(Cl)C(=O)N(Cc3ccccc3)C2=O)c1 | 35.8 | > 100 | > 100 | > 100 | 19.8 | 62.4 | 10.1 | 42.4 | 25.9 | 91.3 | > 100 | > 100 | 18.8 | 53 | 21.9 | 93.1 | 25.5 | 94.4 | 26.7 | 68.6 |
| COc1ccc2c(c1)C(=O)/C(=C/c1ccc([N+](=O)[O-])o1)O2 | 1.79 | 3.43 | 1.3 | 2.74 | 1.89 | 3.74 | 0.495 | 1.22 | 1.39 | 3.02 | 1.8 | 4 | 0.527 | 1.05 | 1.91 | 8.27 | 1.85 | 4.02 | 1.83 | 3.83 |
| CC(C(N)C(=O)NC(C(=O)O)C1OC(n2ccc(=O)[nH]c2=O)C(O)C1O)C(O)c1ccc(O)cn1 (stereo not given) | – | > 100 | – | > 100 | – | > 100 | – | > 100 | – | > 100 | – | > 100 | – | > 100 | – | > 100 | – | > 100 | – | > 100 |
| O=C(NO)[C@@H](Cc1ccccc1)NS(=O)(=O)c1ccc(-c2ccccc2)cc1 | 11.9 | > 25 | > 25 | > 25 | > 25 | > 25 | 11.7 | > 25 | 13.4 | > 25 | > 25 | > 25 | > 25 | > 25 | 7.97 | > 25 | 11.6 | > 25 | > 25 | > 25 |
| CC(=O)O[C@H](C[C@H](C(C)C)N(C)C(=O)[C@@H](NC(=O)[C@H]1CCCN1C)C(C)C)c1nc(C(=O)N[C@@H](Cc2ccccc2)C[C@H](C)C(=O)O)c(C)s1 | 0.00441 | > 16.7 | 0.00197 | 0.0255 | 0.00252 | > 16.7 | < 0.00167 | > 16.7 | < 0.00167 | < 0.00167 | 0.00531 | > 16.7 | < 0.00167 | < 0.00167 | < 0.00167 | > 16.7 | < 0.00167 | > 16.7 | < 0.00167 | > 16.7 |
| CC1=C(C(=O)Nc2cc(Cl)c3[nH]ncc3c2)C(c2ccc(C(F)(F)F)cc2)CC(=O)N1 (stereo not given) | 11.7 | > 25 | 14.8 | > 25 | > 25 | > 25 | > 22.4 | > 25 | > 23.3 | > 25 | > 25 | > 25 | > 18.7 | > 25 | > 25 | > 25 | 11.7 | > 25 | > 25 | > 25 |
